This note sets out measurements from patent US6897287B1, “Ro/SSA peptide reagents for diagnosis of autoantibodies” (Oklahoma Medical Research Foundation, priority 1990, dated 2005).

Test [1] has as its system anti-Sm and anti-nRNP precipitin sera (IgG). Description: Solid phase antipeptide assay of Sm B/B' and related peptides with Sm, nRNP precipitin positive sera. As to conditions: sera 1/100, Sm and nRNP precipitin positive SLE patients. The class given is binding, human. The protocol:
Sera. Human sera form patients who satisfied the classification criteria of the American Rheumatism Association for SLE or normal age-matched, sex-matched controls were used in this study. Fifteen sera from lupus patients were tested. Ten of these sera tested contained antibodies that formed strong precipitin lines with both Sm and nRNP, three formed precipitin lines with only nRNP, one formed a precipitin line with Ro/SSA and La/SSB, and one formed a precipitin line with only Ro/SSA. All of these serologic findings were confirmed by appropriate molecular weight bands for the reported antigen being bound in immunoblot by the respective sera.
Solid-phase noncleavable peptide synthesis. The published sequence of Sm B/B′ was used to construct all the possible overlapping octapeptides. The amino acids used for peptide synthesis had Fmoc protected primary amino groups and t-butyl (or other appropriate group) protected side chains. Overlapping octapeptides were simultaneously synthesized at the rounded ends of radiation derivatized polyethylene pins that were arranged in the format of a 96 well microliter plate (Cambridge Research Biochemicals. Cambridge, UK and Coselco Mimotopes Pty Ltd. Victoria, Australia) The active esters of Fmoc, t-butyl amino acid solutions (30 mM) were solubilized in DMF that had […] added to a final concentration of 30 mM and dispensed into the wells of a microliter plate. Each amino acid was added as determined by the 240 amino acids of the Raji Sm B/B′ sequence. After 18 h of incubation, the pins were washed in DMF for 5 min. four times at 2 min each in methanol, and once again in DMF for 5 min. The Fmoc protecting groups were then removed from the newly added amino acid by a 20% piperidine/DMF bath for 30 min. These steps were repeated until all eight amino acids were added. After the final amino acid, the amino terminal groups of each peptide was acetylated by incubating the pins in a 5:2:1 (v/v/v) mixture of DMF:acetic anhydride: triethylamine for 90 min at room temperature. After this step the pins were again washed in DMF for 2 min, four times at 2 min each in methanol, and then air-dried for 10 min. Finally, side chain amino protecting groups were removed by […] (v/w/v) of trifluoracetic acid:phenol:ethanedithiol. Wash steps included 2 min in methylene chloride, two times at 5 min each in 5% […]/methylene chloride, and a final methylene chloride wash for 5 min. After drying for 10 min., pins were placed in distilled water for 2 min., transferred to a methanol bath for 18 h. and dried under vacuum for 18 h. This procedure was repeated to synthesize another set of the carboxyl-terminal 36 octapeptides to allow substantiation of the previous data. In addition other octapeptides, including the amino acid changes seen in the vanDam/Ohosone Proc. Natl. Acad. Sci. USA 86:4249 (1989) sequences, were also synthesized. Selected substitution and deletion sequences, along with similar sequences from other proteins, were also constructed. Control pins composed of amino acids in a random sequence were prepared that were not present in any of the Sm or nRNP antigen sequences. In addition, positive control pins were synthesized from a known reactive sequence of the La/SSB peptide.
Solid phase antipeptide assay. Wash steps and incubations were carried out in sealed plastic containers. Other assay steps were performed by lowering the pins into microliter plate wells. First, pins were blocked with 3% low-fat milk in PBS for 1 h at room temperature. Pins were then incubated in 1/100 dilutions of sera in 3% milk/PBS with 0.05% TWEEN® (surfactant) overnight at 4° C. in humidified sealed containers. The pin blocks were then washed four times with PBS with 0.05% TWEEN® (surfactant) for 10 min each with vigorous agitation. […]

Test [2] deals with sera that contain an anti-Sm precipitin in the absence of an anti-nRNP precipitin. Description: Solid phase antipeptide assay with sera having anti-Sm precipitin alone. It counts as binding, human. Conditions: anti-Sm precipitin without anti-nRNP precipitin. On the procedure:
Solid phase antipeptide assay. Wash steps and incubations were carried out in sealed plastic containers. Other assay steps were performed by lowering the pins into microliter plate wells. First, pins were blocked with 3% low-fat milk in PBS for 1 h at room temperature. Pins were then incubated in 1/100 dilutions of sera in 3% milk/PBS with 0.05% TWEEN® (surfactant) overnight at 4° C. in humidified sealed containers. The pin blocks were then washed four times with PBS with 0.05% TWEEN® (surfactant) for 10 min each with vigorous agitation. Next, each pin was incubated with anti-human gamma-chain specific IgG raised in a goat, affinity purified and conjugated to alkaline phosphatase (Jackson Immunoresearch Laboratories, West Grove, Pa.) at a {fraction (1/10,000)} dilution. Paranitrophenyl phosphate disodium was used as a substrate for alkaline phosphatase and plates were read at 405 nm with a MICROELISA Reader (Dynatech, Alexandria, Va.). Results for each plate were then standardized by comparison with positive control pins. The same control pins were used for all plates and were allowed to develop to a specific OD with a known concentration of a standard control sera.
All antigenic sites determined in this study require a positively charged amino acid. The size of these sites varies from two nonconsecutive basic amino acids to an entire octapeptide. […]

In test [3] the test system is KSm 5 monoclonal autoantibody. The experiment in a line: Binding of monoclonal antibody KSm 5 to Sm B/B' octapeptides. Set-up: species or system MRL lpr/lpr mouse. As to conditions: hybridoma supernatant. From the text: Autoantibodies binding the Sm B and B′ peptides (B/B′) are commonly associated with systemic lupus erythernatosus in man and in MRL lpr/lpr mice. KSm 3 and KSm 5 were derived from an unmanipulated MRL lpr/lpr mouse using hybridoma monoclonal antibody technology. Supernatants containing KSm 3 and KSm 5 monoclonal antibodies were collected from cloned murine hybridoma cell lines in RPMI 1640 with 10% fetal bovine serum, glutamine, penicillin and streptomycin. These monoclonal autoantibodies are both of the IgG2a subclass. The linear antigenic regions of these two anti-Sm B/B′ murine monoclonal autoantibodies have been mapped using overlapping octapeptides. Unique epitopes are identified by each monoclonal. Monoclonal antibody KSm 5 recognizes the peptide, PPPGMRPP (amino acids 4-11 of SEQ ID NO:14), which is repeated three times in the Sm B polypeptide. […] Both of these regions of Sm B/B′ are major areas of antigericity for human anti-Sm autoantibodies. […] When the arginine in the sixth position PPPGMRPP (amino acids 4-11 of SEQ ID NO:14) is substituted KSm 5 binding is found in an unexpected subset of octapeptides. […] In contrast, binding of KSm 3 to PPPGIRPP (SEQ ID NO:122) is abolished when the sixth position arginine is substituted by any other amino acid. These two murine autoantibodies bind distinct linear epitopes of Sm B/B′ which are also bound by human anti-Sm B/B′ autoantibodies. […]

Entries after “also recorded” stand apart in the source; their conditions may differ.

PPPGMRPP (listed as Homo sapiens): the “antigenicity / reactivity in words” value in test [1] is listed as “especially antigenic; also recorded: consistently the most immunoreactive; also recorded: similarly antigenic in each; also recorded: major linear antigenic epitope”. Besides, the binding in words result in test [2] was “does not appear to be bound”. Further, the “binding by KSm 5 in words” value in test [3] was “recognizes”.
